This note sets out measurements from ChEMBL document CHEMBL3217700, “Synthesis and SAR studies of benzimidazole derivatives as melanin concentrating hormone receptor 1 (MCHR1) antagonists: Focus to detune hERG inhibition” (Medchemcomm, 2011).

Molecules are shown by their SMILES.

One may read the inhibition as the drop in the measured response relative to a control, in per cent. A low value points to a response near the control. By IC50 is commonly meant the concentration needed to halve the response being measured.

The species named for one series is Homo sapiens. Description: Selectivity ratio of IC50 for human ERG to IC50 for MCHR1 (unknown origin) assessed as IP3 levels by cell-based functional assay.
The next series concerns the target hERG (KCNH2) (Homo sapiens, UniProt Q12809). Description: Inhibition of human ERG expressed in HEK293 cells at 1 uM after 5 mins by patch clamp assay. It is filed as cell-based. The following applies: HEK293 cells that express hERG.
Series [1] has as its target T1, Melanin-concentrating hormone receptor 1 (Homo sapiens, UniProt Q99705). Nature of the series: Displacement of [125I]MCH from human recombinant MCHR1 expressed CHO-K1 cell membrane by SPA-YSI assay. It is filed as cell membranes. Background: In a radioligand displacement assay an active substance lowers the binding of a labelled ligand.
The target of series [2] is T1, Melanin-concentrating hormone receptor 1. Nature of the series: Antagonist activity at MCHR1 (unknown origin) assessed as IP3 levels by cell-based functional assay.
Series [3] has as its target Voltage-gated inwardly rectifying potassium channel KCNH2 (Homo sapiens, UniProt Q12809). Description: Inhibition of human ERG expressed in HEK293 cells after 5 mins by patch clamp assay. It is filed as cell-based.

Voltage-gated inwardly rectifying potassium channel KCNH2, sequence (Q12809 whole entry): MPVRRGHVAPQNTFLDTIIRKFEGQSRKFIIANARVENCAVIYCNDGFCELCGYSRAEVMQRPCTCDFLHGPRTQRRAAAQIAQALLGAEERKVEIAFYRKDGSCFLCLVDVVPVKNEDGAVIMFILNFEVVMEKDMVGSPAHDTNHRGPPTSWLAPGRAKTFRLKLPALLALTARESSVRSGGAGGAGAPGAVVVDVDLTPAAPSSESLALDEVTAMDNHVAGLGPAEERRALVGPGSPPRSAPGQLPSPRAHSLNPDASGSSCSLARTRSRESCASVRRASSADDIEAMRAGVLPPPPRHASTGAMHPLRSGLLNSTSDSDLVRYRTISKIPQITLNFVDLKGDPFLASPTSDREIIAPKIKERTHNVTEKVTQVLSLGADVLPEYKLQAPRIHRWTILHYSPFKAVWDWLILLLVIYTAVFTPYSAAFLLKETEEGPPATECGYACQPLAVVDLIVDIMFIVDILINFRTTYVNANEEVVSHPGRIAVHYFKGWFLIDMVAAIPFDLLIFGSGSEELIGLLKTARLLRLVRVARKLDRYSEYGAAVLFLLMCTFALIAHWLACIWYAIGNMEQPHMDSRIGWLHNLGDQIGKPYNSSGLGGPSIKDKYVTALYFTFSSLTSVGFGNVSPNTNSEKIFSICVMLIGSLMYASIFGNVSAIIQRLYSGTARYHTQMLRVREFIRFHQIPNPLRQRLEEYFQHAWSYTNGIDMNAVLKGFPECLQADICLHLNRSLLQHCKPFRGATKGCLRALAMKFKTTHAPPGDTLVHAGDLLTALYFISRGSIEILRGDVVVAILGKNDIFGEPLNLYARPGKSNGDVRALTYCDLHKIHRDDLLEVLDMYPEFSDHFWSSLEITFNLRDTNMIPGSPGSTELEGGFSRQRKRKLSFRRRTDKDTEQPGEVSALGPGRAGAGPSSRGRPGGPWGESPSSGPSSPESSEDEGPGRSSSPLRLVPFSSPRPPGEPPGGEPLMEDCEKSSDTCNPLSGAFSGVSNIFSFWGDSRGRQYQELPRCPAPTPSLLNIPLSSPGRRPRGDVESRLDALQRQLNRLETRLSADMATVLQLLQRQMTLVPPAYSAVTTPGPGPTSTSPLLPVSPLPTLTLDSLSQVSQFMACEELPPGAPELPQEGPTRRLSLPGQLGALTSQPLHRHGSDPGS
hERG (KCNH2), sequence (Q12809 whole entry): as above
T1 sequence (Q99705 whole entry): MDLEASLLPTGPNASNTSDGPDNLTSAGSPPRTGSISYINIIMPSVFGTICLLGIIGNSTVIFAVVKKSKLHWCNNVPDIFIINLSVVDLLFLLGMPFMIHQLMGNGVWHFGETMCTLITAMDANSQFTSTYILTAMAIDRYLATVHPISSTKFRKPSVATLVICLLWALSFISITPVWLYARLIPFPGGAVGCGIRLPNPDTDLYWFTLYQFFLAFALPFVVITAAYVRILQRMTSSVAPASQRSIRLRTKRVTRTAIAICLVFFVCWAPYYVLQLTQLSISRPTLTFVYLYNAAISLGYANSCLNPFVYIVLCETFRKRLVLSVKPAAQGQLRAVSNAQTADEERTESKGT

For the compound `CC(=O)Nc1cccc(C2CCN(Cc3ccc(Cc4nc5ccccc5n4-c4ccc(F)cc4)cc3C#N)CC2)c1`, in the series filed under Homo sapiens, the Ratio IC50 is 131. Also, the inhibition at 5 min, 1 µM on hERG (KCNH2) turned out to be 42%. Further, the IC50 was found to be 10 nM in series [1] and 3 nM in series [2].
`CC(=O)Nc1cccc(C2CCN(Cc3ccc(C(=O)c4nc5ccccc5n4C(C)C)cc3)CC2)c1`: the IC50 in series [1] is 138 nM; in series [2], 131 nM.
With `CC(=O)Nc1cccc(C2CCN(Cc3ccc(C(=O)c4nc5ccccc5n4-c4ccc(C#N)cc4)cc3)CC2)c1`, the figures for the IC50 in series [1] and in series [2] were 172 nM and 260 nM, respectively.
`CC(=O)Nc1cccc(C2CCN(Cc3ccc(C(=O)c4nc5ccccc5n4-c4ccc(F)cc4)cn3)CC2)c1` registered an inhibition at 5 min, 1 µM on hERG (KCNH2) of 27%. Besides, the figures for the IC50 in series [1] and in series [2] were 27 nM and 66 nM, respectively.
On to `CC(=O)Nc1cccc(C2CCN(CCCNc3nc4ccccc4n3-c3ccc(F)cc3)CC2)c1`, for which, in the series listed under Homo sapiens, the Ratio IC50 stood at 3.
As for `CC(=O)Nc1cccc(C2CCN(Cc3ccc(C(=O)c4nc(C)c(C)n4-c4ccc(F)cc4)cc3)CC2)c1`, the Ratio IC50 in the series filed under Homo sapiens came to 18. Moreover, the IC50 in series [3] came to 1700 nM; in series [1], 22 nM; in series [2], 96 nM.
As to `CC(=O)Nc1cccc(C2CCN(Cc3ccc(Oc4nc5ccccc5n4-c4ccc(F)cc4)cc3)CC2)c1`, the inhibition at 5 min, 1 µM against hERG (KCNH2) stood at 80%. Moreover, the IC50 in series [1] amounted to 8 nM; in series [2] it was 53 nM.
Take `CC(=O)Nc1cccc(C2CCN(Cc3ccc(C(=O)c4nc5ccccc5n4-c4ccc(F)cc4)cc3F)CC2)c1`: the values for the IC50 in series [1] and in series [2] were 46 nM and 80 nM, respectively.
The like results for `CC(=O)Nc1cccc(C2CCN(Cc3ccc(C(=O)c4nc5ccccc5n4-c4ccc(F)cc4)cc3C#N)CC2)c1` were, in that order, 651 nM and 385 nM.
Turning to `CC(=O)Nc1cccc(C2CCN(Cc3ccc(C(=O)c4nc5ccccc5n4-c4ccc(Cl)cc4)cc3)CC2)c1`, the Ratio IC50 in the series listed under Homo sapiens came out at 26. Further, the IC50 was determined as 1700 nM in series [3], 34 nM in series [1] and 217 nM in series [2].
Turning to `CC(=O)Nc1cccc(C2CCN(Cc3ccc(C(=O)c4nc5ccccc5n4C)cc3)CC2)c1`, the IC50 is 289 nM in series [1] and 817 nM in series [2].
In the case of `CC(=O)Nc1cccc(C2CCN(Cc3ccc(C(=O)c4nc5ccccc5n4-c4ccc(C(F)(F)F)cc4)cc3)CC2)c1`, the IC50 in series [1] worked out at 1000 nM; in series [2] it was 1370 nM.
Take `CC(=O)Nc1cccc(C2CCN(Cc3ccc(C(=O)c4nc5ccccc5n4-c4ccc(F)cc4)cc3C(F)(F)F)CC2)c1`: the IC50 in series [1] is 3250 nM; in series [2], more than 10000 nM.
Consider `CC(=O)Nc1cccc(C2CCN(Cc3ccc(C(=O)c4nc5ccccc5n4-c4ccc(F)cc4)nc3)CC2)c1`, for which the inhibition at 5 min, 1 µM on hERG (KCNH2) is 37%. In addition, the IC50 is 11 nM in series [1] and 37 nM in series [2].
The like results for `CC(=O)Nc1cccc(C2CCN(Cc3ccc(C(=O)c4nc5cnccc5n4-c4ccc(F)cc4)cc3)CC2)c1` were, in that order, 36%, 12 nM and 59 nM.
Turning to `CC(=O)Nc1cccc(C2CCN(CCCCc3nc4ccccc4n3-c3ccc(F)cc3)CC2)c1`, the Ratio IC50 in the series listed under Homo sapiens was found to be 10.
Compound `CC(=O)Nc1cccc(C2CCN(Cc3ccc(Cc4nc5ccccc5n4-c4ccc(F)cc4)cc3)CC2)c1` yielded an inhibition at 5 min, 1 µM on hERG (KCNH2) of 98%. For the same compound, the IC50 came to 0.9 nM in series [1] and 3 nM in series [2].
`CC(=O)Nc1cccc(C2CCN(Cc3ccc(C(=O)c4nc5ccccc5n4C4CC4)cc3)CC2)c1`: the IC50 in series [1] was 271 nM; in series [2] it was 412 nM.
Consider `CC(=O)Nc1cccc(C2CCN(Cc3ccc(C(=O)c4nc5ccccc5n4-c4ccc(F)cc4)cc3Cl)CC2)c1`, for which the IC50 in series [1] stood at 184 nM; in series [2], 336 nM.
With `CC(=O)Nc1cccc(C2CCN(Cc3ccc(C(=O)c4nc5cccnc5n4-c4ccc(F)cc4)cc3)CC2)c1`, at hERG (KCNH2), the inhibition at 5 min, 1 µM was 58%. For the same compound, the IC50 in series [1] worked out at 14 nM; in series [2], 53 nM.
Consider `CC(=O)Nc1cccc(C2CCN(Cc3ccc(C(=O)c4nc5c(F)cc(F)cc5n4-c4ccc(F)cc4)cc3)CC2)c1`, for which the inhibition at 5 min, 1 µM at hERG (KCNH2) came to 70%. The 50% inhibitory concentration (IC50) in series [1] turned out to be 15 nM; in series [2], 43 nM.
For the compound `CC(=O)Nc1cccc(C2CCN(Cc3ccc(C(=O)c4nc5ccccc5n4-c4ccc(F)cc4)cc3)CC2)c1`, the results for the IC50 in series [1] and in series [2] were 11 nM and 15 nM, respectively.
Turning to `CC(=O)Nc1cccc(C2CCN(C(C)c3ccc(C(=O)c4nc5ccccc5n4-c4ccc(F)cc4)cc3)CC2)c1` (stereo unspecified), the IC50 turned out to be 150 nM in series [1] and 259 nM in series [2].
Turning to `CC(=O)Nc1cccc(C2CCN(Cc3ccc(C(=O)c4nc5ccccc5n4C4CCOCC4)cc3)CC2)c1`, in the series filed under Homo sapiens, the Ratio IC50 stood at 24. The IC50 was determined as 1200 nM in series [3], 55 nM in series [1] and 47 nM in series [2].
